Earlier results, collected in patent US6365216B1, “Particles of N-[N-(3,3-dimethylbutyl)-L-α-aspartyl]-L-phenylalanine 1-methyl ester” (The NutraSweet Company, priority 1999, dated 2002).

Details: times sweeter than sugar (sucrose)

SMILES: COC(=O)C(Cc1ccccc1)NC(=O)C(CC(=O)O)NCCC(C)(C)C [neotame, N-[N-(3,3-dimethylbutyl)-L-α-aspartyl]-L-phenylalanine 1-methyl ester]
- sweetness potency: about 8000 X
